This note sets out measurements from ChEMBL document CHEMBL3860096, “Fragment-to-Lead Medicinal Chemistry Publications in 2015” (J Med Chem, 2017).

For orientation: IC50 means the concentration at which inhibition is half-maximal. What is called Kd is the constant that tells how readily two partners part at equilibrium. Low readings indicate higher affinity, high ones lower affinity. The Ki is a dissociation constant, usually derived from enzyme kinetics or from competition with a known ligand.

Assay [1] is described as follows: Inhibition of Haemophilus influenzae NAD+-dependent DNA ligase A.
A short description of assay [2]: Inhibition of Streptococcus pneumoniae NAD+-dependent DNA ligase A.
Assay [3] concerns the target DNA repair protein RAD51 homolog 1 (Homo sapiens, UniProt Q06609). The assay can be described thus: Binding affinity to of humanised RAD51 C-terminal ATPase domain (with deletion of L2 loop residues 288 to 314) from Pyrococcus furiosus expressed in Escherichia coli by ITC method. In general terms: ITC needs no label: the signal is the heat of the interaction.
Assay [4] addresses Proto-oncogene tyrosine-protein kinase receptor Ret (Homo sapiens) (UniProt P07949). The assay can be described thus: Inhibition of human recombinant RET assessed as residual activity at 100 uM by microfluidics separation based assay.
The target of assay [5] is Coagulation factor XI (Homo sapiens, UniProt P03951). The assay can be described thus: Inhibition of human factor 11a using pyroGlu-Pro-Arg-pNA.HCl substrate.
Coagulation factor XI, sequence (P03951 19-387 limits assumed): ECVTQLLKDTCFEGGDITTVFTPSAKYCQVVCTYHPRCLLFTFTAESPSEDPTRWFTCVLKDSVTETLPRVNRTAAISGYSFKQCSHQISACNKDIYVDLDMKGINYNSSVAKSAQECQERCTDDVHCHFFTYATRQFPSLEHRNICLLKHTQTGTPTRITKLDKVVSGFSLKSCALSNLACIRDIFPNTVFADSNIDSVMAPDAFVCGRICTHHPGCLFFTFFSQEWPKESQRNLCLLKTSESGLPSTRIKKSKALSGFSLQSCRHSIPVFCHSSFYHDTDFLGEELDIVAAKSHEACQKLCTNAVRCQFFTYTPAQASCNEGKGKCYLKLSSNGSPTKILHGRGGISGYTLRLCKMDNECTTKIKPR
Coagulation factor XI, sequence (P03951 388-625 limits assumed): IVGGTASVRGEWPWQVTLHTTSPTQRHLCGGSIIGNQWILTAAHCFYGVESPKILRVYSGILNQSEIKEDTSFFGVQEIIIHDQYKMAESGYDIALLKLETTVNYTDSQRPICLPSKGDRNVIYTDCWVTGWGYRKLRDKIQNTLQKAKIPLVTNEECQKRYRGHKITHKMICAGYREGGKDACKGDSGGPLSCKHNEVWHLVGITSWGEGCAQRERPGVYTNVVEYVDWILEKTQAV
The nature of assay [6]: Inhibition of DNA gyrase B (unknown origin).
Assay [7] deals with Collagenase 3 (Homo sapiens, UniProt P45452). Nature of the assay: Inhibition of human recombinant MMP13 using thiopeptide as chromogenic substrate by colorimetric assay.

DNA repair protein RAD51 homolog 1, sequence (Q06609 2-339 limits assumed): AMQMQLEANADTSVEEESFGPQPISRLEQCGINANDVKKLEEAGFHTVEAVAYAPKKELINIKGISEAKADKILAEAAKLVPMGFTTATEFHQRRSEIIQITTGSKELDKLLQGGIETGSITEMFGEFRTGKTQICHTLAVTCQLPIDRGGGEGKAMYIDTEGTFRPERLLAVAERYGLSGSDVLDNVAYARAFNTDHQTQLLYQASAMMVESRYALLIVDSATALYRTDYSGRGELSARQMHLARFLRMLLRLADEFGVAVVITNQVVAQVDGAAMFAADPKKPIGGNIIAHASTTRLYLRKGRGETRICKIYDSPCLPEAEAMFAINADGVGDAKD
Proto-oncogene tyrosine-protein kinase receptor Ret (Homo sapiens), sequence (P07949 whole entry): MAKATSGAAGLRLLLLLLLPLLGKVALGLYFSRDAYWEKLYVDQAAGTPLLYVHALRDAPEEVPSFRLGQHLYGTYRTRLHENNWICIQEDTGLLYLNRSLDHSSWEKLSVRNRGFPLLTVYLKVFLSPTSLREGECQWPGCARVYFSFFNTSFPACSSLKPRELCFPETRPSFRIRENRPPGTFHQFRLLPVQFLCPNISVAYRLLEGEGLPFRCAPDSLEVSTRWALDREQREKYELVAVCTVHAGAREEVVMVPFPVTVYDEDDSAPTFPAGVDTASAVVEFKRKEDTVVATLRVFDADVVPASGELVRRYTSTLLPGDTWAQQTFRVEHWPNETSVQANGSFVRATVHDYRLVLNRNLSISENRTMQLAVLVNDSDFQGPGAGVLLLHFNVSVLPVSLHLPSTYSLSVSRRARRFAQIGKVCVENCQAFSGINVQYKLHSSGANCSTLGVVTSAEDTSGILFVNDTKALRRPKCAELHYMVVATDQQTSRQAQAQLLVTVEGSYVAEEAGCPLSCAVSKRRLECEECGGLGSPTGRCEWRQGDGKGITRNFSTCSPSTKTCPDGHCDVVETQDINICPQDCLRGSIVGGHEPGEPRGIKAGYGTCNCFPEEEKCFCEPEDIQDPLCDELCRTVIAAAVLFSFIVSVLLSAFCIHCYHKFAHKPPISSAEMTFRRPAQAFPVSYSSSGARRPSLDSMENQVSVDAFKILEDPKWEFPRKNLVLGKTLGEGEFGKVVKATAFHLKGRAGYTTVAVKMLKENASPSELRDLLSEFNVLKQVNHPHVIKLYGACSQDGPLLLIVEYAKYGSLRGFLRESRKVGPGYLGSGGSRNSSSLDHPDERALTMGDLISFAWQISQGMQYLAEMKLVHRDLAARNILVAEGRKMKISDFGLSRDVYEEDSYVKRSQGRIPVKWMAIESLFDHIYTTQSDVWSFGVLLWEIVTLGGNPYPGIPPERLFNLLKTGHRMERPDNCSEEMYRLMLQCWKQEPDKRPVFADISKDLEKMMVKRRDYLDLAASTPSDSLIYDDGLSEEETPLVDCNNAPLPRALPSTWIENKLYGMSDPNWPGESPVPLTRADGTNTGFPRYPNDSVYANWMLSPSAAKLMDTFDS

As for `CC(C)(C)c1nc(-c2ccc[nH]2)c2cc(C(N)=O)c(N)nc2n1`, the half-inhibitory concentration (IC50) in assay [1] and in assay [2] was 100 nM in each case.
In the case of `O=S(=O)(NCCc1c[nH]c2ccccc12)c1cc(Br)c(Cl)s1`, the Kd in assay [3] was found to be 1300 nM.
The compound `COC(=O)[C@@H](N)Cc1c[nH]c2ccccc12` [TRYPTOPHAN METHYL ESTER] displayed a dissociation constant (Kd) in assay [3] of 570000 nM.
Consider `Brc1ccc2c(c1)ncn2-c1ccccc1`, for which the Activity in assay [4] amounted to 28%.
In assay [5], `O=C(N[C@@H](Cc1ccccc1)C(=O)NCc1cc2cc(Cl)ccc2[nH]c1=O)c1ccc2[nH]c(=O)cc(O)c2c1` returned an inhibitory constant (Ki) of 0.5 nM.
`Cc1cc(-c2cc(NC(=O)c3ccc(C(=O)O)cc3C)[nH]n2)cc(C(F)(F)F)c1` gave an IC50 in assay [6] of 160 nM.
On to `Cc1ccc2cc(C(N)=O)cc(O)c2n1`, for which the half-inhibitory concentration (IC50) in assay [1] and in assay [2] was over 500000 nM each time.
Regarding `COc1cccc(CNC(=O)C#Cc2cn(Cc3ccc(C(=O)O)cc3)c(=O)[nH]c2=O)c1`, in assay [7], the 50% inhibitory concentration (IC50) worked out at 11 nM.
